Experimental data published in patent US20230158025A1 (UNIVERSITY OF UTAH RESEARCH FOUNDATION, priority 2020, published 2023).
Read-outs that look alike come from different tables or passages of the source.

Assays:
recombinant human GALK1 = recombinant human GALK1 (Homo sapiens, UniProt P51570); test: hGALK1 biochemical activity assay (Kinase-Glo Plus, ATP depletion)
Description: In vitro hGALK1 activity assays were performed as previously described. Liu et al., Bioorg. Med. Chem. Lett. 25(3): 721-727 (2015), which is incorporated by reference herein for the specific teachings thereof. The biochemical assay was performed by coupling the activity of recombinant human or mouse GALK1 to the Kinase-Glo Plus luminescent ATP detection kit, using ATP depletion as a measure of GALK1 turnover. Specifically, three μL/well of ATP substrate solution (35 μM ATP) in assay buffer (20 mM HEPES pH 8.0, 5 mM MgCl2, 60 mM NaCl, 1 mM DTT, 0.01% BSA final concentration) was dispensed into 1536-well assay plates (Greiner, white solid-bottom medium-binding plates). Aliquots of compound (23 nL solubilized in DMSO) were transferred to the assay plates using a Kalypsys 1536-well pintool such that 11 concentrations with 1/3 dilutions ranging from 57.4 μM-0.97 nM are tested. One μL/well of GALK-galactose solution (5 nM GALK1, 100 μM galactose) in assay buffer was then added, yielding a final reaction volume of 4 μL/well. Following a 1-hour room temperature incubation, 4 μL of Kinase-Glo Plus detection reagent was added to provide an ATP-dependent luminescent readout (final assay volume: 8 μL/well).

recombinant mouse GALK1 = recombinant mouse GALK1 (Mus musculus, UniProt Q9R0N0); test: mGALK1 biochemical activity assay (Kinase-Glo Plus, ATP depletion)
recombinant mouse GALK1, sequence (Q9R0N0 whole entry): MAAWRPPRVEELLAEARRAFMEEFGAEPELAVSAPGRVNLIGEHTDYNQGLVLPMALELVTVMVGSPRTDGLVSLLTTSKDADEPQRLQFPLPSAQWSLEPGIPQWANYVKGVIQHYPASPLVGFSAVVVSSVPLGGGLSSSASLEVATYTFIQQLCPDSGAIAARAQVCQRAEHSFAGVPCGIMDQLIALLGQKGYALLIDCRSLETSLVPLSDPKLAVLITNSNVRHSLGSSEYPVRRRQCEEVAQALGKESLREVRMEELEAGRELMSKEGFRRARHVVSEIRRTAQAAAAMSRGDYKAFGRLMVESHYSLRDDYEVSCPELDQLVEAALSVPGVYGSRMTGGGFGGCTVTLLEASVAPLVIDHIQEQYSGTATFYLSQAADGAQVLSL
Description: In vitro hGALK1 activity assays were performed as previously described. Liu et al., Bioorg. […] The biochemical assay was performed by coupling the activity of recombinant human or mouse GALK1 to the Kinase-Glo Plus luminescent ATP detection kit, using ATP depletion as a measure of GALK1 turnover. […] One μL/well of GALK-galactose solution (5 nM GALK1, 100 μM galactose) in assay buffer was then added, yielding a final reaction volume of 4 μL/well. Following a 1-hour room temperature incubation, 4 μL of Kinase-Glo Plus detection reagent was added to provide an ATP-dependent luminescent readout (final assay volume: 8 μL/well).

PAMPA permeability = conditions: for Papp: Perm. (1 × 10^−6 cm/sec)
[1] = aqueous kinetic solubility
[2] = rat microsomal stability (RLM)
[3] = Tables 2-15, 35 μM ATP, 100 μM galactose, 1 h, bracketed figure after some values (e.g. −1.2) is undefined and not reported, read-out: hGALK IC50
[4] = recombinant human GALK1, Kinase-Glo Plus ATP depletion, read-out: hGALK
[5] = Tables 2-15, 35 μM ATP, 100 μM galactose, 1 h, bracketed figure after some values is undefined and not reported, read-out: mGALK IC50
[6] = recombinant mouse GALK1, Kinase-Glo Plus ATP depletion, read-out: mGALK
[7] = recombinant mouse GALK1, Kinase-Glo Plus ATP depletion, bracketed figure in the cell, e.g. (−1.2), is not defined in the text shown, read-out: mGALK
[8] = microsomal stability half-life, minutes

recombinant human GALK1, sequence (P51570 whole entry): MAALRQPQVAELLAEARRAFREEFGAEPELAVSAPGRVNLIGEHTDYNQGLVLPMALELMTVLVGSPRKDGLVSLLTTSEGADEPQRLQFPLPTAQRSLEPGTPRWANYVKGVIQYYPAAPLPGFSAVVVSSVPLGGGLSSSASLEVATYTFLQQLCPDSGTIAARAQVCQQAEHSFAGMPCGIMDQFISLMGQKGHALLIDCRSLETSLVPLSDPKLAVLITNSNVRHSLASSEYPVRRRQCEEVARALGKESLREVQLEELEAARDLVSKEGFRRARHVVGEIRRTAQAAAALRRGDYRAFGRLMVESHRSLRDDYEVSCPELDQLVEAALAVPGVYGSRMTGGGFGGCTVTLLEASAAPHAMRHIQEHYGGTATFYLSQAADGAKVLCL

IC50 (recombinant human GALK1; [3]) | IC50 (recombinant human GALK1; [4]) | IC50 (recombinant mouse GALK1; [5]) | IC50 (recombinant mouse GALK1; [6]) | Papp (PAMPA permeability; PAMPA) | Sol. [1] | Metab. Stabil. (m) ([2]; microsomal half-life) | Perm. (1 × 10^−6 cm/sec) (PAMPA permeability) | Perm. (1 × 10^−6 cm/sec) (PAMPA permeability; PAMPA) | Sol. ([1]; aqueous kinetic solubility) | Metab. Stabil. (m) ([2]; microsomal stability half-life) | IC50 (recombinant mouse GALK1; [7]) | Metab. Stabil. (m) [2, 8] | SMILES
0.12 µM | 0.12 µM | 1.72 µM | 1.72 µM | < 1 ×10⁻⁶ cm/s | >78 µg/mL | >30 m | – | – | – | – | – | – | CC1=C(C(=O)Nc2cc(C(=O)O)ccn2)C(c2ccc(C)cc2Cl)N=C(Nc2nc3cccc(N)c3o2)N1 (racemic) [Compound 79, 2-(2-((7-aminobenzo[d]oxazol-2-yl)amino)-4-(2-chloro-4-methylphenyl)-6-methyl-1,4-dihydropyrimidine-5-carboxamido)isonicotinic acid]
0.14 µM | 0.14 µM | 1.93 µM | 1.93 µM | < 1 ×10⁻⁶ cm/s | >81 µg/mL | >30 m | – | – | – | – | – | – | COc1ccc(C2N=C(Nc3nc4cccc(N)c4o3)NC(C)=C2C(=O)Nc2cc(C(=O)O)ccn2)c(Cl)c1 (racemic) [Compound 80, 2-(2-((7-aminobenzo[d]oxazol-2-yl)amino)-4-(2-chloro-4-methoxyphenyl)-6-methyl-1,4-dihydropyrimidine-5-carboxamido)isonicotinic acid]
– | 21.7 µM | 30.6 µM | 30.6 µM | – | >76 µg/mL | >30 m | <1 1 × 10^−6 cm/sec | – | – | – | – | – | CC1=C(C(=O)Nc2cc(C(=O)O)ccn2)C(c2ccccc2Cl)N=C(Nc2nc3c(N)cccc3o2)N1 (stereo not drawn) [Compound 2, 2-(2-((4-aminobenzo[d]oxazol-2-yl)amino)-4-(2-chlorophenyl)-6-methyl-1,4-dihydropyrimidine-5-carboxamido)isonicotinic acid]
– | 21.7 µM | 21.7 µM | 21.7 µM | – | >79 µg/mL | >30 m | <1 1 × 10^−6 cm/sec | – | – | – | – | – | COc1ccc2nc(NC3=NC(c4ccccc4Cl)C(C(=O)Nc4cc(C(=O)O)ccn4)=C(C)N3)oc2c1 (stereo not drawn) [Compound 7, 2-(4-(2-chlorophenyl)-6-methyl-2-((6-methoxybenzo[d]oxazol-2-yl)amino)-1,4-dihydropyrimidine-5-carboxamido)isonicotinic acid]
– | 3.43 µM | – | – | – | <1 µg/mL | >30 m | <4.9 1 × 10^−6 cm/sec | – | – | – | – | – | CC1=C(C(=O)Nc2cc(C(=O)O)ccn2)C(c2ccc(-c3ccccc3)cc2Cl)N=C(Nc2nc3ccc(F)cc3o2)N1 (stereo not drawn) [Compound 65, 2-(4-(3-chloro-[1,1′-biphenyl]-4-yl)-2-((6-fluorobenzo[d]oxazol-2-yl)amino)-6-methyl-1,4-dihydropyrimidine-5-carboxamido)isonicotinic acid]
– | – | – | 7.08 µM | – | <1 µg/mL | 25.2784 m | 177.1 1 × 10^−6 cm/sec | – | – | – | – | – | COC(=O)c1ccnc(NC(=O)C2=C(C)NC(Nc3nc4cccc(N)c4o3)=NC2c2ccc(C)cc2Cl)c1 (stereo not drawn) [Compound 91]
– | 10.9 µM | – | – | – | 1.8 µg/mL | >30 m | 4.4 1 × 10^−6 cm/sec | – | – | – | – | – | CC1=C(C(=O)Nc2nnc(-c3cccnc3)s2)C(c2ccccc2Cl)N=C(Nc2nc3cc(N)ccc3o2)N1 (stereo not drawn) [Compound 101, 2-((5-aminobenzo[d]oxazol-2-yl)amino)-4-(2-chlorophenyl)-6-methyl-N-(5-(pyridin-3-yl)-1,3,4-thiadiazol-2-yl)-1,4-dihydropyrimidine-5-carboxamide]
24.3 µM | 24.3 µM | – | – | – | 42.2 µg/mL | >30 m | 4.14 1 × 10^−6 cm/sec | – | – | – | – | – | CC1=C(C(=O)Nc2cc(C(=O)O)ccn2)C(c2ccc(C)cc2Cl)N=C(Nc2ncc(-c3ccccc3)o2)N1 (stereo not drawn) [Compound 103, 2-(4-(2-chloro-4-methylphenyl)-6-methyl-2-((5-phenyloxazol-2-yl)amino)-1,4-dihydropyrimidine-5-carboxamido)isonicotinic acid]
– | 0.07 µM | – | 0.97 µM | – | – | – | – | 407.39 1 × 10^−6 cm/sec | 2.05 µg/mL | – | – | – | CCn1cc(CNC(=O)C2=C(C)NC(Nc3nc4ccc(F)c(N)c4o3)=N[C@H]2c2ccc(C)cc2Cl)cn1 [Compound 135, (R)-2-((7-amino-6-fluorobenzo[d]oxazol-2-yl)amino)-4-(2-chloro-4-methylphenyl)-N-((1-ethyl-1H-pyrazol-4-yl)methyl)-6-methyl-1,4-dihydropyrimidine-5-carboxamide]
– | – | 9.68 µM | 9.68 µM | – | – | – | – | 25.4 1 × 10^−6 cm/sec | <1 µg/mL | 17.7182 m | – | – | COC(=O)c1ccc(NC(=O)C2=C(C)NC(Nc3nc4ccccc4o3)=NC2c2ccccc2Cl)cc1 (stereo not drawn) [Compound 138]
– | 3.85 µM | – | – | 8.8 ×10⁻⁶ cm/s | – | – | – | – | <1 µg/mL | >30 m | – | – | CCOC(=O)c1cccc(NC(=O)C2=C(C)NC(Nc3nc4ccccc4o3)=NC2c2ccccc2Cl)c1 (stereo not drawn) [Compound 139, ethyl 3-(2-(benzo[d]oxazol-2-ylamino)-4-(2-chlorophenyl)-6-methyl-1,4-dihydropyrimidine-5-carboxamido)benzoate]
17.2 µM | – | – | – | – | – | – | – | 863.9 1 × 10^−6 cm/sec | <1 µg/mL | >30 m | – | – | CC1=C(C(=O)Nc2ccc(CO)cc2)C(c2ccccc2Cl)N=C(Nc2nc3ccccc3o2)N1 (stereo not drawn) [Compound 160, 2-(benzo[d]oxazol-2-ylamino)-4-(2-chlorophenyl)-N-(4-(hydroxymethyl)phenyl)-6-methyl-1,4-dihydropyrimidine-5-carboxamide]
21 µM | 21.7 µM | – | – | – | – | – | – | 246.9 1 × 10^−6 cm/sec | <1 µg/mL | >30 m | – | – | COC(=O)c1cncc(NC(=O)C2=C(C)NC(Nc3nc4ccccc4o3)=NC2c2ccccc2Cl)c1 (stereo not drawn) [Compound 188, methyl 5-(2-(benzo[d]oxazol-2-ylamino)-4-(2-chlorophenyl)-6-methyl-1,4-dihydropyrimidine-5-carboxamido)nicotinate]
4.85 µM | 4.85 µM | – | – | < 1.7 ×10⁻⁶ cm/s | – | – | – | – | 33.4 µg/mL | 30 m | – | – | CC1=C(C(=O)Nc2ccc(-c3nnn[nH]3)cc2)C(c2ccccc2Cl)N=C(Nc2nc3ccccc3o2)N1 (stereo not drawn) [Compound 192, N-(4-(1H-tetrazol-5-yl)phenyl)-2-(benzo[d]oxazol-2-ylamino)-4-(2-chlorophenyl)-6-methyl-1,4-dihydropyrimidine-5-carboxamide]
– | – | – | – | – | – | – | – | 319.8 1 × 10^−6 cm/sec | <1 µg/mL | – | 19.3 µM | >30 m | COCC1=C(C(=O)Nc2nncs2)C(c2ccccc2Cl)N=C(Nc2nc3ccccc3o2)N1 (stereo not drawn) [Compound 247]
– | – | – | – | – | – | – | – | 219.68 1 × 10^−6 cm/sec | 10.84 µg/mL | – | 4.32 µM | 20.79 m | CN(C)C(=O)C1CC(=O)C2=C(C1)NC(Nc1nc3ccccc3o1)=NC2c1ccccc1Cl (stereo not drawn) [Compound 277, 2-(benzo[d]oxazol-2-ylamino)-4-(2-chlorophenyl)-N,N-dimethyl-5-oxo-1,4,5,6,7,8-hexahydroquinazoline-7-carboxamide]

SMILES | IC50 (recombinant human GALK1; [3]) | IC50 (recombinant human GALK1; [4]) | IC50 (recombinant mouse GALK1; [5]) | IC50 (recombinant mouse GALK1; [6]) | Papp (PAMPA permeability; PAMPA) | Sol. [1] | Metab. Stabil. (m) ([2]; microsomal half-life) | Perm. (1 × 10^−6 cm/sec) (PAMPA permeability) | Perm. (1 × 10^−6 cm/sec) (PAMPA permeability; PAMPA) | Sol. ([1]; aqueous kinetic solubility) | Metab. Stabil. (m) ([2]; microsomal stability half-life) | IC50 (recombinant mouse GALK1; [7]) | Metab. Stabil. (m) [2, 8]
CC1=C(C(=O)Nc2cc(C(=O)O)ccn2)C(c2ccc(C(=O)O)cc2Cl)N=C(Nc2nc3ccc(F)cc3o2)N1 (stereo not drawn) [Compound 72, 2-(4-(4-carboxy-2-chlorophenyl)-2-((6-fluorobenzo[d]oxazol-2-yl)amino)-6-methyl-1,4-dihydropyrimidine-5-carboxamido)isonicotinic acid] | 2.17 µM | 2.17 µM | – | – | – | >83 µg/mL | >30 m | <1 1 × 10^−6 cm/sec | – | – | – | – | –
COP(=O)(OC)C1=C(C)NC(Nc2nc3ccccc3o2)=NC1c1ccccc1Cl (stereo not drawn) [Compound 242, dimethyl (2-(benzo[d]oxazol-2-ylamino)-4-(2-chlorophenyl)-6-methyl-1,4-dihydropyrimidin-5-yl)phosphonate] | – | 17.2 µM | – | – | – | – | – | – | 1813.86 1 × 10^−6 cm/sec | 12.21 µg/mL | 5.35 m | – | –
